Laboratory results taken from patent US20250242170A1, “Methods and Systems for Improving Photodynamic Therapy by Increasing Depth of Penetration Without Concurrently Increasing Energy Deposition” (priority 2024, published 2025).

How the values were obtained:
Glioblastoma multiforme = experiment: Use case: PDT and SONG laser in treatment of glioblastoma multiforme; assay type: in vivo, human
Source text: The process is further described within a use case scenario of treating a person diagnosed with glioblastoma multiforme. Glioblastoma multiforme is the most aggressive of the brain cancers characterized by rapid growth and extensions throughout the brain making it surgically incurable. Prognosis without treatment is usually 3 months and with maximum treatment only 18 months. The conventional treatment protocol is neurosurgical debulking, targeted and whole brain radiation, followed by 6 months of chemotherapy with Temodar. After these treatments have been exhausted and disease recurs the prognosis is very poor and short term.
The patient described in the stated use case received debulking neurosurgery, targeted radiation to the areas of visible mass, followed by whole brain radiation, and then 6 months of Temodar. After these treatments they suffered memory loss and emotional instability.
A month after completing their last cycle of chemotherapy, the patient received the SONG Laser-based photodynamic therapy in accordance with the present specification, using ICG as the photo-active compound. On days 1, 2, and 3 of the treatment, the patient received 50 mg of nanoscaled or liposomal ICG. On day 3 they were treated with a SONG laser device at 810 nm near infra-red with a primary beam power of 5 Watts. From the peak power measured after going through the beam expander and SONG generator of 3.5 Watts this was reduced 60% to a measured output power of 1.4 Watts. The treated laser was applied in a beam expanded to 25 mm to the whole brain transcutaneously for 12 minutes total duration, by slowly scanning the 25 mm beam systematically over the skull under which brain substance is located. […]
In the mentioned use case, an additional adjunct to the patient's PDT treatment included administering SONG Laser activated and guided very small embryonic-like (VSEL) stem cells 3 days before the PDT cycle began. […] This procedure with SONG Laser activated and guided VSELs was repeated 1 day before the PDT procedure, except with 2.7 times the quantity of VSELs.

prostate neoplasia = experiment: Use case: PDT and SONG laser in treatment of prostate neoplasia; settings: a few weeks after treatment
[1] = same methylene blue + SONG laser protocol

| SMILES | MRI scan repeated, recurrence (Glioblastoma multiforme; 4 months after completing last chemotherapy, same ICG + SONG laser 810 nm protocol) | MRI scan, recurrence of Glioblastoma multiforme (Glioblastoma multiforme; a month after PDT, 50 mg nanoscaled or liposomal ICG on days 1, 2, 3, SONG laser 810 nm, 1.4 W output, whole brain, 12 min on two days, adjunct laser-activated VSELs) | memory and mood (Glioblastoma multiforme; over the next 2 months after the first MRI, same ICG + SONG laser protocol) | reduction of PSA (prostate neoplasia; 50 mg orally and also intra-rectally, 1 h wait, SONG laser 660 nm, 80 mW output, through the perineum, 10 min, PSA of 16 before) [%] | PSA level after treatment (prostate neoplasia; PSA of 16 before, same methylene blue + SONG laser protocol) | adverse effects (prostate neoplasia; [1]) | urinary symptoms (prostate neoplasia; [1]) |
| --- | --- | --- | --- | --- | --- | --- | --- |
| CC1(C)C(/C=C/C=C/C=C/C=C2\N(CCCCS(=O)(=O)O)c3ccc4ccccc4c3C2(C)C)=[N+](CCCCS(=O)(=O)[O-])c2ccc3ccccc3c21 [ICG, Indocyanine Green] | no evidence of recurrence | no evidence of recurrence | improvements in their memory and mood |  |  |  |  |
| CN(C)c1ccc2nc3ccc(=[N+](C)C)cc-3sc2c1 [methylene blue, Methylene Blue] |  |  |  | 50 | 8 | no adverse effects | improvements in urinary symptoms |
